{
  "source": "patent US20100048630A1",
  "about": "“METHODS FOR TREATING CNS DISORDERS” (priority 2008, published 2010)",
  "key": {"Male NMRI mice [1]": {"system": "Male NMRI mice", "test": "Spontaneous locomotor activity (four-channel activity monitor)", "assay_type": "in vivo", "conditions": "doses of 5 and 10 mg/kg", "protocol": "(§1) Male NMRI mice weighing 24-26 g were used. The animals were kept in polycarbonate cages in a thermostatically controlled room at 24±2° C. and at a relative humidity (RH) of 50±10%. The room was artificially illuminated from 6 am to 6 pm and the mice were given commercial pellet rat-mouse feed, autoclaved at 105° C. and sterile filtered tap water, ad libitum.\n(§2) An aqueous solution of radiprodil, in the form of a complex with heptakis(2,6-di-O-methyl)-β-cyclodextrin (DIMEB), was administered orally at doses of 2.5, 5 and 10 mg/kg (calculated for non-complexed radiprodil). […]\nSpontaneous locomotor activity was measured in a four-channel activity monitor manufactured by Farmakotechnika (Hungary). […] The photocell beam, when broken, signaled a count, which was then recorded by a computer.\nEach group consisted of 10 animals. […] The horizontal and vertical movements were determined as the number of beam interruptions collected in 15 minute intervals throughout the 1 hour period.\nIn the spontaneous locomotor activity test, the mean (±s.e.m) value of one hour horizontal activity data (in counts) of each group was calculated.\n(§3) The significance of the drug effect was determined by ANOVA followed by post-hoc Duncan-test. The percentage change in the horizontal activity, immobility or “FST-activity” variables were calculated for each dose according to the equation; […]"}, "Male NMRI mice [2]": {"system": "Male NMRI mice", "test": "Forced swimming test (FST)", "assay_type": "in vivo", "conditions": "doses of 5 and 10 mg/kg; may be a false positive from nonspecific stimulatory effect", "protocol": "as §1, §2\nThe forced swimming test (FST) was measured in glass cylinders (height: […], diameter 14 cm) containing 12 cm of water, maintained at 23-25° C. […] The duration of immobility was recorded using a stopwatch. […]\nIn the forced swimming test, the mean±standard error on the mean (s.e.m) immobility time in seconds was measured. […] The mean (±s.e.m) “FST-activity” value was also calculated for each group and submitted to the same data analysis process as the immobility data.\nas §3"}},
  "data": [
    {"smiles": "O=C(Nc1ccc2[nH]c(=O)oc2c1)C(=O)N1CCC(Cc2ccc(F)cc2)CC1", "note": "[radiprodil, 2-[4-(4-fluoro-benzyl)-piperidine-1-yl]-2-oxo-N-(2-oxo-2,3-dihydro-benzoxazol-6-yl)acetamide]", "values": [
      {"measurement": "effect on spontaneous motor activity of the mice", "setting": "Male NMRI mice [1]", "result": "stimulated"},
      {"measurement": "effect in the forced swimming test", "setting": "Male NMRI mice [2]", "result": "significant effects"}
    ]}
  ]
}
